This test addresses T1, human factor Xa (Homo sapiens, UniProt P00742).
T1 construct: released from the colourless chromogenic substrate by human factor Xa; purchased Roche
In words: Inhibition of factor Xa, enzyme-kinetic measurement with chromogenic substrate (Chromozym X). It is filed as biochemical. The conditions noted are these: pNA release from Chromozym X 200 μMol/l, 405 nm, 37° C., pH 8.0, factor Xa 0.175 U/ml. The method, then:
Method: Enzyme-kinetic measurement with chromogenic substrate. The quantity of p-nitroaniline (pNA) released from the colourless chromogenic substrate by human factor Xa is determined photometrically at 405 nm. It is proportional to the activity of the enzyme used. The inhibition of the enzyme activity by the test substance (in relation to the solvent control) is determined at various concentrations of test substance and from this the IC50 is calculated, as the concentration which inhibits the factor Xa used by 50%.
• Tris(hydroxymethyl)-aminomethane buffer (100 mmol) and sodium chloride (150 mmol), pH 8.0 • Factor Xa (Roche), spec. activity: 10 U/0.5 ml, final concentration: 0.175 U/ml for each reaction mixture • Substrate Chromozym X (Roche), final concentration: 200 μMol/l for each reaction mixture • Test substance: final concentration 100, 30, 10, 3, 1, 0.3, 0.1, 0.03, 0.01, 0.003, 0.001 μMol/l Procedure
10 μl of a 23.5-times concentrated starting solution of the test substance or solvent (control), 175 μl of tris(hydroxymethyl)-aminomethane buffer and 25 μl of a 1.65 U/ml Factor Xa working solution are incubated for 10 minutes at 37° C. After the addition of 25 μl of Chromozym X working solution (1.88 μmol/l) the sample is measured in a photometer (SpectraMax 250) at 405 nm for 150 seconds at 37° C.
• 1. […]

Structures can show the parent of a compound that is named as a salt.

In patent US6838565B2, “Substituted benzoic acid amides, their preparation and their use as pharmaceutical compositions” (Boehringer Ingelheim Pharma GmbH & Co. KG, priority 2002, dated 2005) one finds IC50 data, which are given here for 2 molecules.

T1 sequence (P00742 235-488 limits assumed): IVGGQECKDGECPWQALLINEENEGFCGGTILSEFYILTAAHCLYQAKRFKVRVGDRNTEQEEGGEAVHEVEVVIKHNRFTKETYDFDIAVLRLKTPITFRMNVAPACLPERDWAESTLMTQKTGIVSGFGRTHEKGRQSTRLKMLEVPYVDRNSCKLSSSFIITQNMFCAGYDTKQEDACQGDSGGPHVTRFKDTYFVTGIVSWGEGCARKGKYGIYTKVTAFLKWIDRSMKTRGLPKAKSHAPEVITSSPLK
T1 sequence (P00742 41-179 partner limits assumed): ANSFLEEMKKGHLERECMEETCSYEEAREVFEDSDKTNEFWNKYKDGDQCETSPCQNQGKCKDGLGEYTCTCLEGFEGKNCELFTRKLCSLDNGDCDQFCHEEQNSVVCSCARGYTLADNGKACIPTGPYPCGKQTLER

For orientation: IC50 means the midpoint of a concentration-inhibition curve. A high value points to lower potency. Molecule `Cc1cc(C(=O)NC(Cc2nnn[nH]2)c2cccc(C(=N)N)c2)ccc1C(=O)N1CC=CC1` (centres unmarked) [(1), N-[1-(3-amidino-phenyl)-2-(1H-tetrazol-5-yl)-ethyl]-4-(2,5-dihydro-pyrrol-1-yl-carbonyl)-3-methyl-benzamide-hydrochloride] came in with an IC50 of 0.008 µM.
The figure for `Cc1cc(C(=O)NC(Cc2nnn[nH]2)c2cccc(C(=N)N)c2)ccc1C(=O)N1CCCC1` (centres unmarked) [(2), N-[1-(3-amidino-phenyl)-2-(1H-tetrazol-5-yl)-ethyl]-3-methyl-4-(pyrrolidin-1-carbonyl)-benzamide-hydrochloride] is 0.026 µM.
